Literature values as cited in PubChem BioAssay AID1259409 (Chemical Carcinogenesis Research Information System (CCRIS), 2018).

System: rodent chemically induced tumor inhibition, incidence and multiplicity
Assay: CCRIS tumor inhibitor studies
Settings: Carcinogen: 7,12-DIMETHYLBENZ[A]ANTHRACENE, 57-97-6, Dose [Inhibitor]: 0, Route [Inhibitor]: SUBCUTANEOUS, Species: MOUSE, Promoter: NONE USED

For `C[n+]1ccc(-c2cc[n+](C)cc2)cc1`, the “tumour outcome (control, treated, inhibition, significance)” value (26 MG/KG BW 1/WK FOR 4 WK BEGINNING POST CARCINOGEN DOSE (STUDY DURATION: 4 MO), Strain/Sex: ICR/FEMALE, Target Tissue: Type of Lesion: LUNG: TUMOR, Dose [Carcinogen]: 1 MG/KG BW ONCE ADMINISTERED TO NEONATAL MICE) is listed as 4/10 (40%), 2/9 (22%), 45%, not calculated, the “tumour outcome (control, treated, inhibition, significance)” value (26 MG/KG BW 1/WK FOR 4 WK BEGINNING POST CARCINOGEN DOSE (STUDY DURATION: 4 MO), Strain/Sex: ICR/FEMALE, Target Tissue: Type of Lesion: LUNG: TUMOR, Dose [Carcinogen]: 10 MG/KG BW ONCE ADMINISTERED TO NEONATAL MICE) is listed as 9/11 (82%), 4/7 (57%), 30%, not calculated and the “tumour outcome (control, treated, inhibition, significance)” value (26 MG/KG BW 1/WK FOR 4 WK BEGINNING POST CARCINOGEN DOSE (STUDY DURATION: 4 MO), Strain/Sex: ICR/MALE, Target Tissue: Type of Lesion: LUNG: TUMOR, Dose [Carcinogen]: 1 MG/KG BW ONCE ADMINISTERED TO NEONATAL MICE) is listed as 2/10 (20%), 0/9 (0%), 100%, not calculated. For the same compound, the “tumour outcome (control, treated, inhibition, significance)” value (26 MG/KG BW 1/WK FOR 4 WK BEGINNING POST CARCINOGEN DOSE (STUDY DURATION: 4 MO), Strain/Sex: ICR/MALE, Target Tissue: Type of Lesion: LUNG: TUMOR, Dose [Carcinogen]: 10 MG/KG BW ONCE ADMINISTERED TO NEONATAL MICE) was 9/11 (82%), 4/9 (44%), 46%, not calculated, the “tumour outcome (control, treated, inhibition, significance)” value (26 MG/KG BW 1/WK FOR 4 WK BEGINNING POST CARCINOGEN DOSE (STUDY DURATION: 6 MO), Strain/Sex: ICR/MALE, Target Tissue: Type of Lesion: LIVER: TUMOR, Dose [Carcinogen]: 10 MG/KG BW ONCE ADMINISTERED TO NEONATAL MICE) was 4/11 (36%), 2/17 (12%), 67%, not calculated and the “tumour outcome (control, treated, inhibition, significance)” value (26 MG/KG BW 1/WK FOR 4 WK BEGINNING POST CARCINOGEN DOSE (STUDY DURATION: 6 MO), Strain/Sex: ICR/MALE, Target Tissue: Type of Lesion: LUNG: TUMOR, Dose [Carcinogen]: 1 MG/KG BW ONCE ADMINISTERED TO NEONATAL MICE) was 3/10 (30%), 1/9 (11%), 63%, not calculated. For the same compound, the “tumour outcome (control, treated, inhibition, significance)” value (26 MG/KG BW 1/WK FOR 4 WK BEGINNING POST CARCINOGEN DOSE (STUDY DURATION: 6 MO), Strain/Sex: ICR/MALE, Target Tissue: Type of Lesion: LUNG: TUMOR, Dose [Carcinogen]: 10 MG/KG BW ONCE ADMINISTERED TO NEONATAL MICE) was 9/11 (82%), 13/17 (76%), 7%, not calculated.
